{"source": "patent US8506943B2", "about": "“Cyclohexylethyl carboxylic acid ester compositions and method for using the same for reducing malodors” (International Flavors & Fragrances Inc., priority 2009, dated 2013)", "set-up_in_all_cases": "species or system human", "key": {"[1]": {"assay": "Sweat malodor model (IVA), panel mean rank of odor intensity (Example V)", "conditions": "for mean rank of the odor intensity: 1 = least intense, 5 = most intense, set of racemate, S and R", "description": "(§1) Establishment of a Model of Sweat Malodor: It is known that the perspirative malodors of human body, particularly sweat, are associated with the production of several unpleasant smelling organic acids, particularly isovaleric acid (“IVA”). The commercial sample of this malodorous material (commercially available at Sigma-Aldrich Inc.) was thus used as a model compound to assess the effectiveness of sweat malodor counteractants.\n(§2) Preparation of Test Samples: The VEILEX™ mixtures (VEILEX™ I, VEILEX™ II, and VEILEX™ III, commercially available from IFF) and the enantiomeric compounds of the present invention (all with optical purity over 80% ee, synthesized as above) were evaluated for sweat malodor counteracting effectiveness. Different concentrations of VEILEX™ mixtures and their enantiomeric counterparts were used based on the priori usage levels. Additionally, the overall intensity of 1-cyclohexylethanol (1% in diethyl phthalate) was noticeably greater than the other two compounds, a higher concentration of IVA (2% in diethyl phthalate) was therefore used for the test.\n(§3) Testing Procedure: A cyclohexylethyl carboxylic acid ester compound (1 g, a racemate or enantiomer) and IVA (1 g, 1-2%) were placed in two 1-ounce jars separately, which were both placed in a 1-gallon jar and capped for 24 hours to allow for the headspace saturation prior to the test. Each set of three test samples (i.e., three 1-gallone jars containing IVA and, respectively, a racemate and each of the two enantiomers) was presented in a blind, random order to internal panelists (consisting of trained females having a mean age of 40 years).\n(§4) The panelists were instructed to take the steps of i) uncap a first jar; ii) place their noses immediately above the opening; iii) take short sniffs for 2-3 seconds; iv) cap the jar; v) repeat the steps for the other two jars in the same set; and vi) provide a rank of the odor intensity for a set of three jars using the intensity scales of 1 to 5, where 1 represents the “Least Intense” and 5 represents the “Most Intense”. The ranks of the odor intensity were then statistically analyzed using SPSS 15.0 for Windows. Freidman's non-parametric tests were used to analyze the ranked intensity for each test sample. Post hoc pair-wise comparisons were only conducted when the overall Chi-square omnibus test was statistically significant (p<0.05)."}, "[2]": {"assay": "Bathroom malodor model, number of panelists ranking more intense (Example VI)", "conditions": "S vs R", "description": "as §3, §4\n(§5) Establishment of Mold/Mildew and Bathroom Malodor Models: In addition to the sweat model established as above, the malodor models of mold/mildew and bathroom were prepared based on applicant's proprietary formulations for assessing the effectiveness of mold/mildew and bathroom malodor counteractants.\n(§6) Testing Procedure: Test samples were prepared the same as above. The same procedure was carried out except the ranks of the odor intensity were recorded based on the numbers of the panelists who ranked the more intense."}, "[3]": {"assay": "Sweat malodor model (IVA), number of panelists ranking more intense (Example VI)", "conditions": "for rank of the odor intensity (number of panelists who ranked the more intense): S vs R", "description": "as §1, §2, §3, §4, §6"}, "[4]": {"assay": "Mold/mildew malodor model, number of panelists ranking more intense (Example VI)", "conditions": "for rank of the odor intensity (number of panelists who ranked the more intense): Mold/Mildew, S vs R", "description": "as §3, §4, §5, §6"}, "[5]": {"assay": "Sweat malodor (1% IVA) intensity on Labeled Magnitude Scale, concentration series (Example VIII)", "conditions": "for Malodor Intensity: LMS mean, 0-100; for % MOR (percent malodor reduction): vs Malodor Alone", "description": "Determination of an Effective Concentration of (1S)-1-cyclohexylethyl acetate: To further identify an effective concentration of (1S)-1-cyclohexylethyl acetate in counteracting sweat malodor, (1S)-1-cyclohexylethyl acetate was prepared at a series of concentrations, ranging from 0.05% to 5% in diethyl phthalate, with corresponding vapor phase concentrations ranging from about 1.5 to about 150 μg per liter of air space.\nTesting Procedure: The same procedures were carried out as in Examples V and VII to evaluate the effectiveness of different concentrations of (1S)-1-cyclohexylethyl acetate (“VEILEX™ 2S”) in counteracting sweat malodor modeled by 1% of IVA."}, "[6]": {"assay": "Mold/mildew malodor intensity on Labeled Magnitude Scale, concentration series (Example VII)", "conditions": "for Malodor Intensity: LMS mean, 0-100; for % MOR (percent malodor reduction): vs Malodor Alone", "description": "Determination of an Effective Concentration of (1R)-1-cyclohexylethyl butyrate: To further identify an effective concentration of (1R)-1-cyclohexylethyl butyrate in counteracting mold/mildew malodor, (1R)-1-cyclohexylethyl butyrate was prepared at a series of concentrations, ranging from 0.05% to 10% in diethyl phthalate, with corresponding vapor phase concentrations ranging from about 0.3 to about 60 μg per liter of air space.\nTesting Procedure: The same procedure was carried out as in Example VI to evaluate the effectiveness of different concentrations of (1R)-1-cyclohexylethyl butyrate (“VEILEX™ 1R”) in counteracting mold/mildew malodor. The odor intensity was rated using Labeled Magnitude Scale (LMS) [Green, et al., Chemical Senses, 21(3), June 1996, 323-334]. Mean (“Malodor Intensity”) and standard error of the mean (“SE”, ±) were obtained, where 0 represents “No Sensation” and 100 represents “The Strongest Imaginable Malodor Sensation”. Percent malodor reduction (“% MOR”) represents the reduction in mean malodor intensity of the negative control (Malodor Alone) in the presence of an enantiomeric cyclohexylethyl carboxylic acid ester."}, "[7]": {"conditions": "compared with enantiomeric counterpart"}}, "note": "Marks after values point to notes of the source that are not given here."}
{"smiles": "CC(O)C1CCCCC1", "note": "(racemic) [1-cyclohexylethanol M, 1-cyclohexylethanol, reference compound]", "values": [{"measurement": "mean rank of the odor intensity", "setting": "[1]; IVA (2%), test compound 1%", "result": 2.58}]}
{"smiles": "CC(=O)OC(C)C1CCCCC1", "note": "(racemic) [1-cyclohexylethyl acetate M, 1-cyclohexylethyl acetate, reference compound]", "values": [{"measurement": "mean rank of the odor intensity", "setting": "[1]; IVA (1%), test compound 2%", "result": 2.15}]}
{"smiles": "CCCC(=O)OC(C)C1CCCCC1", "note": "(racemic) [1-cyclohexylethyl butyrate M, 1-cyclohexylethyl butyrate, reference compound]", "values": [{"measurement": "mean rank of the odor intensity", "setting": "[1]; IVA (1%), test compound 5%", "result": 2.50}]}
{"smiles": "C[C@@H](O)C1CCCCC1", "note": "[1-cyclohexylethanol R, (R)-1-cyclohexylethanol]", "values": [{"measurement": "rank of the odor intensity (number of panelists who ranked the more intense)", "setting": "[2]; test compound 1%", "result": 13}, {"measurement": "rank of the odor intensity (number of panelists who ranked the more intense)", "setting": "[3]; IVA (2%), test compound 1%", "result": 5}, {"measurement": "mean rank of the odor intensity", "setting": "[1]; IVA (2%), test compound 1%", "result": 1.50}, {"measurement": "rank of the odor intensity (number of panelists who ranked the more intense)", "setting": "[4]; test compound 1%", "result": 13}]}
{"smiles": "C[C@H](O)C1CCCCC1", "note": "[1-cyclohexylethanol S, (S)-1-cyclohexylethanol]", "values": [{"measurement": "rank of the odor intensity (number of panelists who ranked the more intense)", "setting": "[2]; test compound 1%", "result": 12}, {"measurement": "rank of the odor intensity (number of panelists who ranked the more intense)", "setting": "[3]; IVA (2%), test compound 1%", "result": 7}, {"measurement": "mean rank of the odor intensity", "setting": "[1]; IVA (2%), test compound 1%", "result": 1.92}, {"measurement": "rank of the odor intensity (number of panelists who ranked the more intense)", "setting": "[4]; test compound 1%", "result": 12}]}
{"smiles": "CC(=O)O[C@H](C)C1CCCCC1", "note": "[1-cyclohexylethyl acetate R, (R)-1-cyclohexylethyl acetate]", "values": [{"measurement": "rank of the odor intensity (number of panelists who ranked the more intense)", "setting": "[2]; test compound 2%", "result": 12}, {"measurement": "rank of the odor intensity (number of panelists who ranked the more intense)", "setting": "[3]; IVA (1%), test compound 2%", "result": 11}, {"measurement": "mean rank of the odor intensity", "setting": "[1]; IVA (1%), test compound 2%", "result": 2.46}, {"measurement": "rank of the odor intensity (number of panelists who ranked the more intense)", "setting": "[4]; test compound 2%", "result": 11}]}
{"smiles": "CC(=O)O[C@@H](C)C1CCCCC1", "note": "[1-cyclohexylethyl acetate S, (1S)-1-cyclohexylethyl acetate]", "values": [{"measurement": "rank of the odor intensity (number of panelists who ranked the more intense)", "setting": "[2]; test compound 2%", "result": 13}, {"measurement": "rank of the odor intensity (number of panelists who ranked the more intense)", "setting": "[3]; IVA (1%), test compound 2%", "result": "2*"}, {"measurement": "effectiveness in counteracting sweat malodor (in words)", "setting": "[3]; [7]", "result": "significantly and specifically effective in counteracting sweat malodor"}, {"measurement": "mean rank of the odor intensity", "setting": "[1]; IVA (1%), test compound 2%", "result": "1.38*"}, {"measurement": "effectiveness in counteracting sweat malodor (in words)", "setting": "[1]; compared with racemate and R enantiomer", "result": "particularly effective in counteracting sweat malodor"}, {"measurement": "rank of the odor intensity (number of panelists who ranked the more intense)", "setting": "[4]; test compound 2%", "result": 14}, {"measurement": "Malodor Intensity", "setting": "[5]; 0.05%, 1.5 μg/L", "result": 17.98}, {"measurement": "% MOR (percent malodor reduction)", "setting": "[5]; 0.05%, 1.5 μg/L", "result": 23, "unit": "%"}, {"measurement": "Malodor Intensity", "setting": "[5]; 0.1%, 3 μg/L", "result": 18.29}, {"measurement": "% MOR (percent malodor reduction)", "setting": "[5]; 0.1%, 3 μg/L", "result": 23, "unit": "%"}, {"measurement": "Malodor Intensity", "setting": "[5]; 0.5%, 15 μg/L", "result": 14.8}, {"measurement": "% MOR (percent malodor reduction)", "setting": "[5]; 0.5%, 15 μg/L", "result": 37, "unit": "%"}, {"measurement": "Malodor Intensity", "setting": "[5]; 1%, 30 μg/L", "result": 14.15}, {"measurement": "% MOR (percent malodor reduction)", "setting": "[5]; 1%, 30 μg/L", "result": 42, "unit": "%"}, {"measurement": "Malodor Intensity", "setting": "[5]; 5%, 150 μg/L", "result": 8.35}, {"measurement": "% MOR (percent malodor reduction)", "setting": "[5]; 5%, 150 μg/L", "result": 55, "unit": "%"}]}
{"smiles": "CCCC(=O)O[C@H](C)C1CCCCC1", "note": "[1-cyclohexylethyl butyrate R, (1R)-1-cyclohexylethyl butyrate]", "values": [{"measurement": "rank of the odor intensity (number of panelists who ranked the more intense)", "setting": "[2]; test compound 5%", "result": 13}, {"measurement": "rank of the odor intensity (number of panelists who ranked the more intense)", "setting": "[3]; IVA (1%), test compound 5%", "result": 4}, {"measurement": "mean rank of the odor intensity", "setting": "[1]; IVA (1%), test compound 5%", "result": 1.42}, {"measurement": "rank of the odor intensity (number of panelists who ranked the more intense)", "setting": "[4]; test compound 5%", "result": "5*"}, {"measurement": "effectiveness in counteracting mold/mildew malodor (in words)", "setting": "[4]; [7]", "result": "significantly and specifically effective in counteracting mold/mildew malodor"}, {"measurement": "Malodor Intensity", "setting": "[6]; 0.05%, 0.3 μg/L", "result": 13.70}, {"measurement": "% MOR (percent malodor reduction)", "setting": "[6]; 0.05%, 0.3 μg/L", "result": 13, "unit": "%"}, {"measurement": "Malodor Intensity", "setting": "[6]; 0.1%, 0.6 μg/L", "result": 11.86}, {"measurement": "% MOR (percent malodor reduction)", "setting": "[6]; 0.1%, 0.6 μg/L", "result": 24, "unit": "%"}, {"measurement": "Malodor Intensity", "setting": "[6]; 0.5%, 3 μg/L", "result": 12.03}, {"measurement": "% MOR (percent malodor reduction)", "setting": "[6]; 0.5%, 3 μg/L", "result": 23, "unit": "%"}, {"measurement": "Malodor Intensity", "setting": "[6]; 1%, 6 μg/L", "result": 11.66}, {"measurement": "% MOR (percent malodor reduction)", "setting": "[6]; 1%, 6 μg/L", "result": 22, "unit": "%"}, {"measurement": "Malodor Intensity", "setting": "[6]; 10%, 60 μg/L", "result": 8.25}, {"measurement": "% MOR (percent malodor reduction)", "setting": "[6]; 10%, 60 μg/L", "result": 47, "unit": "%"}]}
{"smiles": "CCCC(=O)O[C@@H](C)C1CCCCC1", "note": "[1-cyclohexylethyl butyrate S, (S)-1-cyclohexylethyl butyrate]", "values": [{"measurement": "rank of the odor intensity (number of panelists who ranked the more intense)", "setting": "[2]; test compound 5%", "result": 12}, {"measurement": "rank of the odor intensity (number of panelists who ranked the more intense)", "setting": "[3]; IVA (1%), test compound 5%", "result": 8}, {"measurement": "mean rank of the odor intensity", "setting": "[1]; IVA (1%), test compound 5%", "result": 2.08}, {"measurement": "rank of the odor intensity (number of panelists who ranked the more intense)", "setting": "[4]; test compound 5%", "result": 20}]}
